Measured values reported in US8603497B2, “Composition for local anesthesia” (National University Corporation Okayama University, priority 2008, dated 2013).
Counter-ions that a name gives are not always drawn.

Experiments:
Hartley male guinea pigs [1] = assay: guinea pig wheal method (durability of local anesthetic action); details: for ED50 for adrenaline alone (local anesthesia enhancing action) / ED50 for dexmedetomidine hydrochloride alone (local anesthesia enhancing action): added alone to lidocaine hydrochloride; for ED50 for adrenaline alone (local anesthesia enhancing action): calculated from scores of Solutions 6 to 10; for theoretical ED50 value in combined use / ED50 value obtained in the experiment in combined use: combined use of adrenaline and dexmedetomidine; for theoretical ED50 value in combined use: isobologram, mean ±95% confidence interval in brackets; for ED50 value obtained in the experiment in combined use: significantly different from theoretical, P<0.05 (T-test); for ED50 for dexmedetomidine hydrochloride alone (local anesthesia enhancing action): calculated from scores of Solutions 1 to 5
Protocol: A guinea pig wheal method was employed. The hair on the back of Hartley male guinea pigs each having a body weight of 500 to 600 g was clipped. After that, 0.1 ml each of Solutions 1 to 5 blended as described above was injected intracutaneously, and the surroundings of wheals, which developed in the skin, were marked with a felt-tipped pen. Pricks were applied on six sites inside each wheal with a fixed-weight sensory needle. […] The pricks were applied every 5 minutes until 60 minutes, and the total of the number of times that an anesthetic effect was observed was used as a score to assess the durability of a local anesthetic action. A 50% effective dose (effective dose 50: ED50) for dexmedetomidine was calculated based on a score for each of Solutions 1 to 5.
Each score for Solutions 16 to 21 and Solutions 22 to 27 was calculated to assess a local anesthetic effect.
Each score for Solutions 28 to 31 was calculated to assess a local anesthetic effect.

Hartley male guinea pigs [2] = assay: peripheral blood flow by Doppler rheometer after intradermal injection; format: in vivo, guinea pig; details: 0.1 ml intradermal, every 5 minutes until 30 minutes, ratio to baseline; FIG. 2
Protocol: The hair of the back was clipped and then three sites around the center of the back were marked with a felt-tipped pen at sufficient intervals. A blood flow value was measured by attaching a Doppler rheometer (ALF21RD; ADVANCE CO., LTD., Tokyo) probe and was used as a baseline value (Time 0). […] 0.1 ml each of Solutions 32, 33, and 34 obtained by the blending was intradermally injected into the three sites and the Doppler rheometer probe was fixed on the same sites. A blood flow value was time-dependently measured at an interval of 5 minutes after the injection until 30 minutes. The ratio of the blood flow value to the baseline value (0 to 1.0) was expressed as a peripheral blood flow degree and a time-dependent change at each of the injection sites was determined.

Row | SMILES | ED50 for adrenaline alone (local anesthesia enhancing action) (Hartley male guinea pigs [1]) [nM] | ED50 for adrenaline alone (local anesthesia enhancing action) (Hartley male guinea pigs [1]; listed as Adrenaline) [nM] | theoretical ED50 value in combined use (Hartley male guinea pigs [1]) [nM] | ED50 value obtained in the experiment in combined use (Hartley male guinea pigs [1]) [nM] | peripheral blood flow / peripheral vasoconstriction (Hartley male guinea pigs [2]) | ED50 for dexmedetomidine hydrochloride alone (local anesthesia enhancing action) (Hartley male guinea pigs [1]) [nM] | ED50 for dexmedetomidine hydrochloride alone (local anesthesia enhancing action) (Hartley male guinea pigs [1]; listed as Dexmedetomidine hydrochloride) [nM]
1 | CNCC(O)c1ccc(O)c(O)c1 (stereo not drawn) [adrenaline] | 5910 | 5910 | 2960 | 788 | – | – | –
2 | Cc1cccc([C@H](C)c2cnc[nH]2)c1C [dexmedetomidine hydrochloride, Dexmedetomidine hydrochloride] | – | – | 39.2 | 11.3 | tended to suppress the peripheral vasoconstriction action of adrenaline | 78.3 | 78.3
